2 molecules from patent US11091522B2, “Peptidomimetic macrocycles and uses thereof” (priority 2018, dated 2021) can be followed below.

Structures are written as SMILES. pIC50: −log10 of the molar value.

The test system of one data set is Caspase 3. The experiment in a line: Caspase 3 detection assay in SJSA-1 cells. It counts as cell-based, human. The settings on record: SJSA-1 cells, 48 h, Caspase 3 activation over DMSO-treated cells. Here is the method:
One the day of the assay, the media was replaced with fresh RPMI-11% FBS assay media. […] Control wells contained no cells, and received 200 μL of the assay media.
The solutions were serially diluted 33.3 times using sterile water to provide a range of 10× working stock solutions. […] 20 μL of the 10× working stock solutions were added to the appropriate wells. Row H of the plates had control wells. Wells H1-H3 received 20 μL of the assay media. […] Wells H10-H12 received media and had no cells. […] Nutlin-3a was diluted using the same dilution scheme as the peptides.
10 μL of the 10× stock solutions were added to the appropriate wells to achieve the final concentrations in a total volume of 100 μL. […] 48 h after incubation, 80 μL of the media was aspirated from each well. 100 μL of Caspase 3/7Glo assay reagent was added to each well. […] Data were analyzed as Caspase 3 activation over DMSO-treated cells.

A further data set deals with SJSA-1 cells. The experiment in a line: Cell lysis by peptidomimetic macrocycles (LDH release). It counts as cell-based, human. Here is the method:
SJSA-1 cells were plated out one day in advance in clear, flat-bottom plates at a density of 7500 cells/well with 100 μL/well of growth media. Row H columns 10-12 were left empty to be treated with media alone. On the day of the assay, the media was exchanged with RPMI 1% FBS media to result in 90 μL of media per well. 10 mM stock solutions of the peptidomimetic macrocycles were prepared in 100% DMSO. The peptidomimetic macrocycles were diluted serially in 100% DMSO, and further diluted 20-fold in sterile water to prepare working stock solutions in 5% DMSO/water. The concentrations of the peptidomimetic macrocycles ranged from 500 μM to 62.5 μM.
10 μL of each compound solution was added to the 90 μL of SJSA-1 cells to yield final concentration of 50 μM to 6.25 μM in 0.5% DMSO-containing media. The negative control (non-lytic sample) was 0.5% of DMSO alone. The positive control (lytic) samples included 10 μM of Melittin and 1% Triton X-100. The cell plates were incubated for 1 h at 37° C. After incubation for 1 h, the morphology of the cells was examined by microscope. The plates were then centrifuged at 1200 rpm for 5 min at room temperature. 40 μL of the supernatant for each peptidomimetic macrocycle and control sample was transferred to clear assay plates. LDH release was measured using an LDH cytotoxicity assay kit.
Background: Release of lactate dehydrogenase indicates damage to the cell membrane.

A short description of data set [1]: Pharmacokinetics of AP1 and palbociclib in non-tumor-bearing nu/nu mice. The settings on record: nu/nu, mouse, plasma, po, 75 mg/kg, nu/nu mice; for AUC(0-t): AUClast.
For data set [2], the system named is SJSA1 osteosarcoma cancer cells. Kind of data set: cells. The settings on record: Homo sapiens, SJSA-1, 120 h, read-out: IC50, cellular proliferation.
For another data set, the system named is MCF7 cells. It counts as cell-based, human. The settings on record: Homo sapiens.
[3] abbreviates: Alone, AP1 20 mg/kg or palbociclib 75 mg/kg alone.
The mark [4] stands for this setting: Co-administered, AP1 20 mg/kg with palbociclib 75 mg/kg.

Turning to `CSCC[C@H](NC(=O)[C@H](C)NC(=O)[C@H](C)NC(=O)[C@]1(C)CCCC=CCCCCCC[C@@](C)(NC(=O)[C@H](Cc2ccccc2)NC(=O)[C@@H](NC(=O)[C@H](CC(C)C)NC(C)=O)[C@@H](C)O)C(=O)N[C@@H](C)C(=O)N[C@@H](Cc2ccc(O)cc2)C(=O)N[C@@H](Cc2c[nH]c3ccccc23)C(=O)N[C@@H](C)C(=O)N[C@@H](C)C(=O)N[C@@H](CC(C)C)C(=O)N1)C(=O)N[C@H](C)C(N)=O` (single isomer, unassigned) [compound 72], in the data set with Caspase 3 (0.3 μM), the “caspase 0.3 μM” value turned out to be 1. The “caspase 3 μM” value in the data set with Caspase 3 (3 μM) is on record as 1. The “caspase 10 μM” value in the data set with Caspase 3 (10 μM) is 4. The “caspase 30 μM” value in the data set on Caspase 3 (30 μM) is 10. Moreover, in the data set on SJSA-1 cells (6.25 μM), the “6.25 μM % Lysed cells (1 h LDH)” value is 2%. Also, the “25 μM % Lysed cells (1 h LDH)” value with SJSA-1 cells (25 μM) turned out to be 0%. Also, the “50 μM % Lysed cells (1 h LDH)” value in the data set on SJSA-1 cells (50 μM) is given as 3%.

What is called AUC(0-t) is the area under the concentration-time curve up to a stated or last time point. The Cmax is the peak of the concentration-time curve. In general, inhibition refers to the relative decrease from the control value, in per cent. In data set [1] (setting [3]), `CC(=O)c1c(C)c2cnc(Nc3ccc(N4CCNCC4)cn3)nc2n(C2CCCC2)c1=O` [palbociclib] had an AUC(0-t) of 37000 ng·h/mL and a Cmax of 2900 ng/mL. In addition, in data set [1] (setting [4]), the AUC(0-t) amounted to 29000 ng·h/mL and the maximum concentration (Cmax) stood at 2600 ng/mL. In addition, in data set [2], the pIC50 was 7.22. Moreover, in the data set on MCF7 cells, the inhibition at 0.0003 µM was -10%, the inhibition at 0.001 µM was -19%, the inhibition at 0.003 µM is -9.7% and the inhibition at 0.01 µM was determined as 6.6%. For the same molecule, in the data set with MCF7 cells, the inhibition at 0.03 µM is 21.1%, the inhibition at 0.1 µM is 40.9%, the inhibition at 0.3 µM was 62.9% and the inhibition at 1 µM is 78.9%. Besides, in the data set with MCF7 cells, the inhibition at 3 µM stood at 84%, the inhibition at 10 µM amounted to 84.3% and the inhibition at 30 µM is 100%.
